# Assay results published in publication PMC11355573, “A New Renieramycin T Right-Half Analog as a Small Molecule Degrader of STAT3” (Marine Drugs, 2024).
# Where two headings read alike, the source gives them in different places.
# Tests used:
# H292 cells = type: cell-based; details: for apoptosis: 24 h
# Description: (§1) Apoptosis is a crucial mechanism of cell death induced by anticancer drugs. We further analyzed the apoptosis induction effect of the potent small molecules, namely DH_28, DH_30, and DH_31. Nuclear morphology detected by the staining with nucleus-specific fluorescence dye Hoechst 33342 and cell-impermeable PI for necrotic detection was performed. Morphologic changes by means of condensed and/or fragmented nuclei were observed after 24 h of treatment (Figure 2D). […] Therefore, DH_31 was selected for further experiments.
# (§2) Figure 2 The effect of RT right-half analogs on cytotoxicity in NSCLC and human normal lung epithelial (BEAS-2B) cell lines and apoptotic cell death in NSCLC cells. (A) NSCLC H292 and H460 cells were treated with derivatives of RT right-half analogs for 24 h and analyzed using MTT assay to assess cytotoxicity. (B) IC50 values for H292 and H460 cell lines were calculated. (C) BEAS-2B cells were treated with DH_28, DH_30, DH_31, and TM-(−)-18 for 24 h. The cytotoxic effects were evaluated using an MTT assay, and the IC50 values for BEAS-2B cells were determined. (D) H292 and H460 cells were seeded and treated with 0–10 μM of DH_28, DH_30, and DH_31 for 24 h. Hoechst 33342 and PI were used to stain the cell nuclei. Images were obtained under a fluorescence microscope. (E) The percentages of cell death were calculated based on the stained images in H292 and H460 cells. Data represent the mean ± SD (n = 3). *, **, and *** indicate a statistically significant difference between the treated and the untreated cells at p < 0.05, p < 0.01, and p < 0.001, respectively. TEXT PRINTED IN THE PICTURE: (B) DH_17: IC50 ± SD (μM) H292: 20.50 ± 3.69; IC50 ± SD (μM) H460: > 100 | (B) DH_20: IC50 ± SD (μM) H292: 21.46 ± 3.77; IC50 ± SD (μM) H460: > 100 | (B) DH_23: IC50 ± SD (μM) H292: 17.50 ± 3.08; IC50 ± SD (μM) H460: > 100 | (B) DH_26: IC50 ± SD (μM) H292: 7.18 ± 2.39; IC50 ± SD (μM) H460: > 100 | (B) DH_28: IC50 ± SD (μM) H292: 9.56 ± 1.87; IC50 ± SD (μM) H460: 11.48 ± 1.87 | (B) DH_30: IC50 ± SD (μM) H292: 7.80 ± 2.30; IC50 ± SD (μM) H460: 4.51 ± 0.78 | (B) DH_31: IC50 ± SD (μM) H292: 5.54 ± 1.04; IC50 ± SD (μM) H460: 2.90 ± 0.58 | (B) TM-(–)-18: IC50 ± SD (μM) H292: > 100; IC50 ± SD (μM) H460: 7.89 ± 1.27 | (C) DH_28: BEAS-2B IC50 ± SD (μM): 16.46 ± 2.11 | (C) DH_30: BEAS-2B IC50 ± SD (μM): 5.50 ± 1.70 | (C) DH_31: BEAS-2B IC50 ± SD (μM): 6.51 ± 1.40 | (C) TM-(–)-18: BEAS-2B IC50 ± SD (μM): 7.25 ± 1.25 DOUBTS OF THE COPYIST ABOUT THIS PICTURE: Panel C, DH_28, IC50: small print, 16.46 ± 2.11 is the best reading; 6 could be 8 / Panel C, DH_30, IC50: small print, 5.50 ± 1.70 is the best reading; 5 could be 6 / Panel C, DH_31, IC50: small print, 6.51 ± 1.40 is the best reading; 6 could be 8 or 5 / Panel C, TM-(–)-18, IC50: small print, 7.25 ± 1.25 is the best reading
# H460 cells = type: cell-based; details: 24 h
# Description: as §1, §2
# STAT3 mRNA = STAT3 mRNA by Real-time qPCR; type: cell-based, human; details: H460, 0–2.5 μM, 8 h
# Description: To explore whether the reduction in total STAT3 protein after DH_31 treatments (as shown in Figure 5B–E) occurs at the mRNA or protein levels, we first investigated mRNA levels using Real-time qPCR. […] To evaluate whether DH_31 affects STAT3 stability, pretreatment with MG132, a potent selective proteasome inhibitor, was performed. H460 cells were pretreated with or without MG132 (10 μM) for 1 h and then cells were either treated with DH_31 for 6 h or left untreated. […] The proteasome can recognize and degrade protein targets that are conjugated by single or poly-ubiquitin molecules. To investigate the ubiquitination level of STAT3 with DH_31 treatments, the ubiquitination level was evaluated using immunoprecipitation and Western blot analysis of the STAT3–ubiquitin complex in the lung cancer cells treated with DH_31 and in untreated cells.
# Quantitative Real-time PCR was performed to determine the effect of DH_31 on mRNA levels of STAT3 and EMT-related genes. H460 cells (4.0 × 10^5 cells per well) were seeded in 6-well plates. Following overnight incubation, the cells were treated with different concentrations of DH_31 (0–2.5 μM)) for 8 h at 37 °C. After treatment, total RNA was isolated using the RNeasy kit (Qiagen, Germany) and subsequently subjected to cDNA synthesis using qScript cDNA Supermix (Quanta bio, Beverly, MA, USA), following the manufacturers’ protocols. […]
smiles,measurement,setting,value
"COc1c(C)cc2c(c1O)[C@@H]1CN(Cc3ccc4ccccc4c3)[C@@H](C#N)[C@H](C2)N1C [DH_31, (1R,4R,5S)-10-hydroxy-9-methoxy-8,11-dimethyl-3-(naphthalen-2-ylmethyl)-1,2,3,4,5,6-hexahydro-1,5-epiminobenzo[d]azocine-4-carbonitrile]",apoptosis,"H292 cells; H292, 1 µM",significant apoptosis
same,apoptosis,"H292 cells; H292, 10 µM",significant apoptosis
same,necrosis,"H292 cells; H292, 10 µM, 24 h (p < 0.001)",Necrosis was detected
same,necrosis,"H460 cells; H460, 1 µM",did not cause significant necrosis
same,apoptotic cell death,"H460 cells; H460, 10 µM",significant apoptotic cell death
same,necrosis,"H460 cells; H460, 10 µM",did not cause significant necrosis
same,mRNA expression of STAT3,STAT3 mRNA,did not change significantly
